Results reported in patent US12285512B2, “Composition comprising allulose as active ingredient for skin whitening” (CJ CHEILJEDANG CORPORATION, priority 2018, dated 2025).
“Also recorded” adds a separate entry of the source.

Experiments:
tyrosinase from mushroom [1] = experiment: Quantitative LC analysis of substrate (catechol) in the tyrosinase enzyme reactant; format: biochemical; conditions: 50 mM sample; for Reduction rate of catechol compared to initial stage of reaction: 0 to 60 min, D.W. control 8.2%; for Reduction rate of catechol compared to initial stage of reaction / amount of catechol in the enzyme reactant: 37° C.; for tyrosinase activity (from catechol consumption, Table 2): LC quantification of catechol
Experimental: (§1) An enzyme solution was prepared by dissolving 0.2 mg/ml of tyrosinase from mushroom (25 KU, 2687 units/mg solid) in 50 mM sodium phosphate buffer (pH 6.5). […] As a substrate, 30 mM catechol, an enzyme solution, and 100 mM sodium phosphate buffer (pH 6.5) were mixed so that the mixing ratio of catechol:enzyme solution:sodium phosphate buffer was 5:1:4. […] As a co-sample solution, DW was added instead of the enzyme solution. After mixing, absorbance was measured at 420 nm.
A catechol standard preparation was diluted according to concentration, and then was subjected to LC analysis to obtain a standard curve of the catechol. 200 μl of each enzyme reaction solution obtained in Experimental Example 2-1 above was added into a PCR tube, and was reacted at 37° C. for 0 minutes (an enzyme reaction product in which the enzyme was inactivated by heating each enzyme reaction solution for 10 minutes), 10 minutes, 20 minutes, 30 minutes, and 60 minutes to prepare an enzyme reactant for each reaction time. The reaction was stopped using a heat block. The reaction was stopped according to the planned time and heated in a heat block at 105° C. for 10 minutes, and then put in ice and cooled for 10 minutes. The PCR tube was centrifuged twice using a centrifuge. LC analysis was carried out by a typical analytical method. The enzyme reactant was filtered with a 1-ml syringe. The filtered enzyme reactant was injected into an insert, and was subjected to LC analysis. The amount of catechol in the enzyme reactant was measured according to the standard curve, which is obtained in advance, for quantifying catechol.

tyrosinase from mushroom [2] = experiment: Polyphenol oxidase (tyrosinase from mushroom) activity, catechol substrate, absorbance at 420 nm; format: biochemical; conditions: 50 mM sample, 30 mM catechol substrate, pH 6.5; FIG. 2
Experimental: as §1

Murine melanocytes = experiment: Inhibitory effect on melanogenesis: intracellular melanin (OD405) in a-MSH-treated murine melanocytes; format: cell-based; conditions: 50 μM a-MSH, 72 hours, FIG. 1
Experimental: Murine melanocytes were seeded on each 6-well plate at 1×10^4 cells/well. In a sample treatment group 24 hours after the seeding, cells were treated with allulose (CJ CheilJedang, 98% or higher purity) at a concentration of 0.01 wt %, 0.1 wt %, and 1 wt %. In a positive control group, cells were treated with arbutin at 0.02 wt %. A comparative group was treated with 1 wt % of glucose (Sigma Aldrich) or 1 wt % of fructose (Sigma Aldrich). An untreated group (control) was not treated with a sample, or a-MSH inducing melanin production. The sample treatment group, the positive control group, the comparative group, and the negative control group were treated with 50 μM of a-MSH. After 72 hours of treatment, cells were recovered and lysed with NaOH to detect intracellular melanin. The absorbances (OD405) of the untreated group, the negative control group (treated with only a-MSH), the sample treatment group (treated with a-MSH and each sample by concentration), and the positive control group (treated with a-MSH and arbutin) were measured.

[3] = reaction time 0 min (enzyme inactivated by heating)

OC[C@H]1O[C@@](CO)(O[C@H]2O[C@H](CO)[C@@H](O)[C@H](O)[C@H]2O)[C@@H](O)[C@@H]1O [Comparative Example 1, sucrose]
Reduction rate of catechol compared to initial stage of reaction (tyrosinase from mushroom [1]): 8.1%
tyrosinase activity (from catechol consumption, Table 2) (tyrosinase from mushroom [1]): not inhibited at all
amount of catechol in the enzyme reactant (tyrosinase from mushroom [1]; [3]): 3296.7 ppm
amount of catechol in the enzyme reactant (tyrosinase from mushroom [1]; reaction time 30 min): 3112.0 ppm
amount of catechol in the enzyme reactant (tyrosinase from mushroom [1]; reaction time 60 min): 3031.0 ppm

O=C(CO)C(O)C(O)C(O)CO (centres unmarked) [allulose]
tyrosinase activity (absorbance at 420 nm) (tyrosinase from mushroom [2]): tyrosinase activity was inhibited
Reduction rate of catechol compared to initial stage of reaction (tyrosinase from mushroom [1]): 6.1%
tyrosinase activity (from catechol consumption, Table 2) (tyrosinase from mushroom [1]): tyrosinase activity was inhibited
amount of catechol in the enzyme reactant (tyrosinase from mushroom [1]; [3]): 3288.7 ppm
amount of catechol in the enzyme reactant (tyrosinase from mushroom [1]; reaction time 30 min): 3126.7 ppm
amount of catechol in the enzyme reactant (tyrosinase from mushroom [1]; reaction time 60 min): 3087.0 ppm
melanogenesis (intracellular melanin, OD405) (Murine melanocytes; 1 wt % of sample): inhibit melanogenesis; also recorded: melanogenesis was significantly inhibited
melanogenesis (intracellular melanin, OD405) (Murine melanocytes; allulose-treated group (0.01, 0.1 and 1 wt %)): melanogenesis was suppressed

O=C(CO)[C@@H](O)[C@H](O)[C@H](O)CO [fructose]
tyrosinase activity (absorbance at 420 nm) (tyrosinase from mushroom [2]): not inhibited at all
Reduction rate of catechol compared to initial stage of reaction (tyrosinase from mushroom [1]): 8.2%
tyrosinase activity (from catechol consumption, Table 2) (tyrosinase from mushroom [1]): not inhibited at all
amount of catechol in the enzyme reactant (tyrosinase from mushroom [1]; [3]): 3236.0 ppm
amount of catechol in the enzyme reactant (tyrosinase from mushroom [1]; reaction time 30 min): 3069.0 ppm
amount of catechol in the enzyme reactant (tyrosinase from mushroom [1]; reaction time 60 min): 2971.0 ppm
melanogenesis (intracellular melanin, OD405) (Murine melanocytes; 1 wt % of sample): melanogenesis was not inhibited at all
